In patent publication US20220265614A1, “TREATMENT COMPRISING FXR AGONISTS” (Novartis AG, priority 2019, published 2022):

How the values were obtained:
human hepatocytes = assay: In vitro human hepatocytes treated with FXR agonists: LDL uptake; format: cell-based; conditions: FIG. 5
Source text: In addition, FXR agonist treatments have been associated with lipid abnormalities, including increases in peripheral LDL (Neuschwander-Tetri et al, The Lancet 2015; 385: 956-965). The reduction of the bile acid pathway by FXR agonists could lead to intracytoplasmic increase in cholesterol in the hepatocytes. Increase cholesterol in hepatocytes is associated with a counter mechanism of decrease LDL receptor on the surface of the cells (Goldstein et al Circulation. 1987 September;76(3):504-7). Such a decrease in the LDL receptor on the surface of the hepatocytes will ultimately result in an increase in circulating LDL; the phenotype observed in the clinics. […] To mitigate the increase in circulating LDL, it is proposed to administer a FXR agonist to the subjects in need thereof in the evening (e.g. from about 6 pm to about 12 pm, preferably from about 8 pm to about 11 pm, preferably around 9 pm) to reduce the impact of the FXR agonist on circulating LDL.
To mitigate the increase in peripheric LDL, we hypothesize that treating the subjects in the evening (from about 6 pm to about 12 pm, e.g. from about 8 pm to about 11 pm, preferably around 9 pm) would be reduce the impact of the drug on LDL. […]

NASH patients [1] = conditions: cited from earlier work
[2] = tested on: patients with biopsy-proven NASH and fibrosis stages 2-3; assay: FLIGHT-FXR (NCT02855164) Part C interim analysis at week 12; format: in vivo, human
Source text: Prespecified endpoints assessed at week 12 included overall safety and changes in alanine aminotransferase (ALT), hepatic fat fraction (HFF), gamma glutamyl transferase (GGT), and body weight.

NASH patients [3] = assay: Parts A and B of study CLJN452A2202 in NASH patients, 12 weeks
[4] = higher doses (140 μg, 200 μg), after 12 weeks of treatment
[5] = all doses (10, 30, 60 and 90 μg), 12 weeks

For `O=C(O)c1ccnc(N2CC(O)(c3ccc(OCc4c(-c5c(Cl)cccc5Cl)noc4C4CC4)cc3Cl)C2)c1` [cilofexor], the “LDL uptake by hepatocytes” value (human hepatocytes) was “reduce the LDL uptake by hepatocytes in a dose dependent manner”.

In the case of `CC[C@H]1[C@@H](O)[C@@H]2[C@H](CC[C@]3(C)[C@@H]([C@H](C)CCC(=O)O)CC[C@@H]23)[C@@]2(C)CC[C@@H](O)C[C@@H]12` [obeticholic acid, 6α-ethyl-chenodeoxycholic acid], the “LDL uptake by hepatocytes” value (human hepatocytes) is listed as “reduce the LDL uptake by hepatocytes in a dose dependent manner”, the “adverse effects of long term administration: pruritus” value (NASH patients [1]) is listed as “most common adverse effect” and the “lipid abnormalities: low density lipoprotein (LDL) cholesterol” value (NASH patients [1]; long term administration) is listed as “increased”.

For `O=C(O)c1cc(F)c2nc(N3C4CCC3CC(OCc3c(-c5ccccc5OC(F)(F)F)noc3C3CC3)C4)sc2c1` [Tropifexor, 2-[(1R,3r,5S)-3-({5-cyclopropyl-3-[2-(trifluoromethoxy)phenyl]-1,2-oxazol-4-yl}methoxy)-8-azabicyclo[3.2.1]octan-8-yl]-4-fluoro-1,3-benzothiazole-6-carboxylic acid], the “lipid changes that led to treatment discontinuation or dose reduction” value ([2]; 140 μg and 200 μg, 12 weeks) was “None”, the “low density lipoprotein-cholesterol (LDL-C)” value ([2]; 140 μg and 200 μg, 12 weeks) was “dose-related increase” and the “LS mean absolute change (SE) in ALT from baseline to Week 12” value ([2]; 140 μg once daily, N = 50) was −20.1 (4.57) U/L. The “LS mean absolute change (SE) in GGT from baseline to Week 12” value ([2]; 140 μg once daily, N = 50) was −39.2 (3.70) U/L, the “LS mean absolute change (SE) in body weight from baseline to Week 12” value ([2]; 140 μg once daily, N = 50) was −2.46 (0.38) kg and the “frequency of serious adverse events” value ([2]; 140 μg, 200 μg and placebo groups) was “low and comparable across groups”. The “treatment discontinuation rate due to pruritus” value ([2]; 140 μg, n=1) was 2%, the “prespecified endpoints at week 12” value ([2]; 200 μg) was “met” and the “LS mean absolute change (SE) in ALT from baseline to Week 12” value ([2]; 200 μg once daily, N = 51) was −23.6 (4.48) U/L. The “LS mean absolute change (SE) in GGT from baseline to Week 12” value ([2]; 200 μg once daily, N = 51) was −40.9 (3.62) U/L, the “LS mean absolute change (SE) in body weight from baseline to Week 12” value ([2]; 200 μg once daily, N = 51) was −3.20 (0.37) kg and the “treatment discontinuation rate due to pruritus” value ([2]; 200 μg, n=3) was 6%. The “patients with pruritus whose events were of mild (Grade 1) severity” value ([2]; both Tropifexor groups (140 μg, 200 μg)) was over 60%, the “ALT, HFF, and body weight” value [2, 4] was “robust and dose-dependent decreases” and the safety and tolerability [2, 4] was “good safety and tolerability”. The “biologic activity (GGT)” value (NASH patients [3]; 10 to 90 μg daily for 12 weeks) was “clear dose response”, the “target engagement (FGF19)” value (NASH patients [3]; 10 to 90 μg daily for 12 weeks) was “clear dose response” and the “efficacy based on biomarkers” value (NASH patients [3]; 60 and 90 μg, Week 12) was “anti-inflammatory and anti-steatotic efficacy”. The “ALT compared to placebo” value (NASH patients [3]; [5]) was “reduced”, the “hepatic fat fraction compared to placebo” value (NASH patients [3]; [5]) was “reduced” and the tolerability (NASH patients [3]; up to 90 μg daily) was “generally well tolerated”.
